This is an account of results in patent US12583823B2, “Crystal form of Daprodustat, preparation method therefor and use thereof” (priority 2019, dated 2026).

The series is described as follows: Saturation solubility in water (HPLC). In kind it is physicochemical. Particulars: for Saturation solubility: stirring at room temperature for 12 h, HPLC. From the text: Test product: the crystal form M, crystal form CS1, crystal form CS9 and crystal form K of the compound of the formula (I), preparation methods thereof being respectively shown in Example 1, Comparative example 1, Comparative example 2 and Comparative example 3.
The operating conditions of HPLC were as follows: • Instrument: high performance liquid chromatograph (model: Thermo U3000) • Chromatographic column: Agilent C18 column (5 μm, 150 mm×4.6 mm) • Mobile phase composition and gradient elution procedure:
• Detection wavelength: 260.4 nm • Flow rate: 1 mL/min • Injection volume: 15 μL • Column temperature: 30° C.

In turn, `O=C(O)CNC(=O)C1C(=O)N(C2CCCCC2)C(=O)N(C2CCCCC2)C1=O` [Crystal form CS1, N-[(1,3-dicyclohexylhexahydro-2,4,6-trioxo-5-pyrimidinyl)carbonyl]glycine, reference compound] yielded a Saturation solubility of 24.48 µg/mL.
As to `O=C(O)CNC(=O)C1C(=O)N(C2CCCCC2)C(=O)N(C2CCCCC2)C1=O` [Crystal form CS9, N-[(1,3-dicyclohexylhexahydro-2,4,6-trioxo-5-pyrimidinyl)carbonyl]glycine, reference compound], the Saturation solubility amounted to 19.4 µg/mL.
Regarding `O=C(O)CNC(=O)C1C(=O)N(C2CCCCC2)C(=O)N(C2CCCCC2)C1=O` [Crystal form K, N-[(1,3-dicyclohexylhexahydro-2,4,6-trioxo-5-pyrimidinyl)carbonyl]glycine], the Saturation solubility worked out at 23.36 µg/mL.
As for `O=C(O)CNC(=O)C1C(=O)N(C2CCCCC2)C(=O)N(C2CCCCC2)C1=O` [Crystal form M, N-[(1,3-dicyclohexylhexahydro-2,4,6-trioxo-5-pyrimidinyl)carbonyl]glycine], the Saturation solubility worked out at 42.47 µg/mL. Further, for the setting “result in words”, the “Saturation solubility compared with those of the crystal form K, the crystal form CS1 and the crystal form CS9” value is on record as “significantly higher”.
